According to PubChem BioAssay AID256 (DTP/NCI, 2004):
Inconclusive results and toxic doses are left out. The calls were made as follows: active = survival T/C of 150% or more; inactive = T/C below 125% in these data.

System: CD2F1 mice, L1210 leukemia ip, survival T/C
Assay: NCI In Vivo Anticancer Drug Screen. Data for tumor model L1210 Leukemia (intraperitoneal) in CD2F1 (CDF1) mice
Details: endpoint: mean survival time, higher = longer survival
Summary of the method: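 Activity against a transplanted murine tumor was judged by comparing the compound group with a vehicle group. The outcome in the treated animals was divided by that in the controls.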

[1] = dose: 50.0 mg/kg/injection, schedule: Q01DX001 (ip), vehicle: saline
[2] = dose: 100.0 mg/kg/injection, schedule: Q01DX001 (ip), vehicle: saline
[3] = dose: 200.0 mg/kg/injection, schedule: Q01DX001 (ip), vehicle: saline
[4] = dose: 400.0 mg/kg/injection, schedule: Q01DX001 (ip), vehicle: saline
[5] = dose: 100.0 mg/kg/injection, schedule: Q01DX009 (ip), vehicle: saline with Tween-80
[6] = dose: 100.0 mg/kg/injection, schedule: Q04DX003 (ip), vehicle: saline with Tween-80
[7] = dose: 200.0 mg/kg/injection, schedule: Q04DX003 (ip), vehicle: saline with Tween-80
[8] = dose: 400.0 mg/kg/injection, schedule: Q04DX003 (ip), vehicle: saline with Tween-80
[9] = dose: 100.0 mg/kg/injection, schedule: Q04DX002 (ip), vehicle: saline with Tween-80
[10] = dose: 200.0 mg/kg/injection, schedule: Q04DX002 (ip), vehicle: saline with Tween-80
[11] = dose: 400.0 mg/kg/injection, schedule: Q04DX002 (ip), vehicle: saline with Tween-80

Measured: T/C

O=C1OCC2(C(=O)O)C(=O)OCC12 (stereo not given)
inactive: [1] 97 % of control | [2] 106 % of control | [3] 106 % of control | [4] 101 % of control

Cc1nc(-c2ccccc2)[nH]c(=O)c1CC(C)O (stereo not given)
inactive: [5] 91 % of control | [6] 94 % of control | dose: 200.0 mg/kg/injection, schedule: Q01DX009 (ip), vehicle: saline with Tween-80 96 % of control | [7] 95 % of control | [8] 92 % of control

c1ccc(C(c2ccccc2)n2ccnc2)cc1
inactive: dose: 75.0 mg/kg/injection, schedule: Q01DX001 (ip), vehicle: saline 100 % of control | dose: 150.0 mg/kg/injection, schedule: Q01DX001 (ip), vehicle: saline 101 % of control

CC(C)OC(=O)N(C(=O)OC(C)C)c1ccc(F)cc1
inactive: [9] 91 % of control | [10] 97 % of control | [11] 94 % of control

CCCCc1c(C)[nH]c(=S)[nH]c1=O
inactive: [6] 91 % of control | [7] 96 % of control

CCCCCCC1=C(O)C(=O)C(CCCCCC)=C(O)C1=O
inactive: [2] 100 % of control | [3] 97 % of control | [4] 97 % of control

CCOC(=O)/C=C1/C=C(C)CC(C)(C)C1 (tested in a mixture with another compound)
inactive: [9] 98 % of control | [10] 91 % of control | [11] 87 % of control

CSc1nc(N)nc2n[nH]nc12
inactive: dose: 100.0 mg/kg/injection, schedule: Q01DX001 (ip), vehicle: Klucel (hydroxypropylcellulose) (HPC) 97 % of control | dose: 200.0 mg/kg/injection, schedule: Q01DX001 (ip), vehicle: Klucel (hydroxypropylcellulose) (HPC) 105 % of control | dose: 400.0 mg/kg/injection, schedule: Q01DX001 (ip), vehicle: Klucel (hydroxypropylcellulose) (HPC) 103 % of control

CCCN(CCC)C(=O)C(=O)OCC
inactive: dose: 6.25 mg/kg/injection, schedule: Q01DX009 (ip), vehicle: saline 90 % of control | dose: 12.5 mg/kg/injection, schedule: Q01DX009 (ip), vehicle: saline 96 % of control | dose: 25.0 mg/kg/injection, schedule: Q01DX009 (ip), vehicle: saline 93 % of control

C1=C[S+](c2ccccc2)C(c2ccccc2)c2ccccc21 (stereo not given)
inactive: dose: 12.5 mg/kg/injection, schedule: Q04DX002 (ip), vehicle: Klucel (hydroxypropylcellulose) (HPC) 106 % of control | dose: 25.0 mg/kg/injection, schedule: Q04DX002 (ip), vehicle: Klucel (hydroxypropylcellulose) (HPC) 115 % of control

CN1C(=O)C=CC1=O
inactive: dose: 0.5 mg/kg/injection, schedule: Q01DX009 (ip), vehicle: saline 101 % of control | dose: 1.0 mg/kg/injection, schedule: Q01DX009 (ip), vehicle: saline 95 % of control | dose: 2.0 mg/kg/injection, schedule: Q01DX009 (ip), vehicle: saline 93 % of control | dose: 4.0 mg/kg/injection, schedule: Q01DX009 (ip), vehicle: saline 95 % of control

C1CC[N-]CC1.C1CC[N-]CC1.CC(=O)CC(C)=O.CC(=O)CC(C)=O.[Ni+2]
inactive: dose: 10.0 mg/kg/injection, schedule: Q04DX003 (ip), vehicle: saline 94 % of control | dose: 20.0 mg/kg/injection, schedule: Q04DX003 (ip), vehicle: saline 96 % of control | dose: 40.0 mg/kg/injection, schedule: Q04DX003 (ip), vehicle: saline 104 % of control

NNC(=O)c1nnc(NN)[nH]c1=O
inactive: dose: 100.0 mg/kg/injection, schedule: Q01DX001 (ip), vehicle: carboxymethylcellulose (CMC) 102 % of control | dose: 200.0 mg/kg/injection, schedule: Q01DX001 (ip), vehicle: carboxymethylcellulose (CMC) 100 % of control | dose: 400.0 mg/kg/injection, schedule: Q01DX001 (ip), vehicle: carboxymethylcellulose (CMC) 93 % of control

CCCCSC(=N)N
inactive: dose: 25.0 mg/kg/injection, schedule: Q01DX001 (ip), vehicle: saline 100 % of control | [1] 105 % of control | [2] 113 % of control

NN(C(=O)c1ccccc1)c1ccccc1
inactive: [5] 98 % of control | [6] 95 % of control | [7] 97 % of control | [8] 100 % of control

CCCN(CCC)S(=O)(=O)c1ccc(NC(=O)Oc2ccccc2OC)cc1
inactive: [2] 95 % of control | [3] 91 % of control | [4] 91 % of control
